From US20260294769A1, “ASCORBIC ACID DERIVATIVES AND COSMETIC THEREOF” (SEIWA KASEI COMPANY, LIMITED, priority 2023, published 2026) come the findings set out here.

Series [1] in a line: Stability Test-1: residual rate of 1% aqueous solutions stored at 50° C. (HPLC). The format is physicochemical. To be noted: water, 1% aqueous solution; for remaining at 336 h: after 2 weeks, read-out: Residual Rate; for remaining at 672 h: after 4 weeks. On the procedure:
(§1) For each of the samples of Synthesis Examples 1 to 6, 1% aqueous solutions were adjusted to pH 3, 5, 7, 8, and 9 with a dilute potassium hydroxide aqueous solution, and then placed in 50 mL screw tubes and sealed. […] Furthermore, the odor and coloration of the samples adjusted to pH 7 were evaluated based on the following methods and criteria, and the results are shown in Table 11.
• ⊚: 80% or more • ◯: 50% or more, less than 80% • Δ: 30% or more, less than 50% • x: Less than 30%

Series [2] is described as follows: Stability Test-1: odor of 1% aqueous solutions adjusted to pH 7 stored at 50° C. Format: physicochemical. The note with it: 1% aqueous solution pH 7, 50° C., 10 panelists. On the procedure: as §1
(§2) • Evaluation was made by 10 panelists according to the following criteria. • 3: Almost odorless. • 2: There is a slight strange odor. • 1: A strong odor is detected. • Based on the results of the above evaluation, the following classification was made: • ◯: Total score of 10 panelists is 25 or more • Δ: Total score of 10 panelists is 16-24 • x: The total score of 10 panelists is 15 or less

A short description of series [3]: Stability Test-1: coloration of 1% aqueous solutions adjusted to pH 7 stored at 50° C. The format is physicochemical. To be noted: 1% aqueous solution pH 7, 50° C., 10 panelists. On the procedure:
as §1
• Evaluation was made by 10 panelists according to the following criteria. • 3: Almost no change compared to immediately after preparation. • 2: Color changes compared to immediately after preparation. • 1: Strongly colored compared to immediately after preparation. • Based on the results of the above evaluation, the following classification was made: […]

A short description of series [4]: Stability Test-2: coloration of cream stored at 50° C. The format is physicochemical. To be noted: 10 panelists. The text has this:
• Evaluation was made by 10 panelists according to the following criteria. • 3: Almost no change compared to immediately after preparation. • 2: Color changes compared to immediately after preparation. • 1: Strongly colored compared to immediately after preparation. • Based on the results of the above evaluation, the following classification was made:
(§3) For each of the samples of Synthesis Examples 9 to 32, (a) and (b) shown in Table 12 were each heated and mixed. After cooling, (c) shown in Table 12 was added to prepare a cream with a pH of 7 or 9. […] The odor and coloration were also evaluated according to the same method and criteria as in Test Example 1. The results regarding the residual rate are shown in Tables 13 and 14, and the results regarding the odor and coloration are shown in Tables 15 and 16.

Series [5] relates to Normal human dermal fibroblasts (NHDF). The experiment in a line: Hyaluronic acid production promoting effect (ELISA of hyaluronic acid in supernatant). The format is cell-based. To be noted: 10 mM or less, 48 hours, control group set to 100%, N=3. How it is done: Normal human dermal fibroblasts (NHDF) were prepared in D-MEM containing 5% (v/v) fetal bovine serum to a cell density of 2.5×10^4 cells/well, and then pre-incubated on a 96-well plate for 24 hours. After removing the medium, samples prepared in serum-free D-MEM were added to each well and cultured for 48 hours. After the culture was completed, the amount of hyaluronic acid in the supernatant was quantified by ELISA. Measurements were performed in triplicate (N=3).
The amount of hyaluronic acid produced when the sample was measured at a concentration of 10 mM or less was compared with that of the control group, and the results (% values when the control group is set to 100%) are shown in Tables 18 to 20 based on the following criteria.
(An ELISA detects its analyte on a solid surface through an enzyme-linked reagent.)

Series [6] can be described thus: Stability Test-2: odor of cream stored at 50° C. Format: physicochemical. The note with it: 10 panelists.
Text: as §2, §3

Series [7] is described as follows: Stability Test-2: residual rate in cream of pH 7 or 9 stored at 50° C. Format: physicochemical. On the procedure:
as §3

Setting [8] is: cream pH 7, 50° C., after 2 weeks, 20160 min.
Setting [9] is: cream pH 7, 50° C., after 4 weeks, 40320 min.
Setting [10] is: cream pH 9, 50° C., after 2 weeks, 20160 min.
Where [11] appears, read: cream pH 9, 50° C., after 4 weeks, 40320 min.

Read-outs that look alike come from different tables or passages of the source. Bounds are passed on as bounds.

Take `O=C1OC(C(O)CO)C2=C1OCCO2` (stereo not shown) [Synthesis Example 1, 2,3-O-(1,2-ethanediyl) ascorbic acid]: the remaining at 336 h is at least 80% in series [1] (pH 3, 50° C.); at least 80% in series [1] (pH 5, 50° C.); 50 to 80% in series [1] (pH 7, 50° C.); 30 to 50% in series [1] (pH 8, 50° C.); below 30% in series [1] (pH 9, 50° C.). Also, the remaining at 672 h is at least 80% in series [1] (pH 3, 50° C.); at least 80% in series [1] (pH 5, 50° C.); 30 to 50% in series [1] (pH 7, 50° C.); below 30% in series [1] (pH 8, 50° C.); below 30% in series [1] (pH 9, 50° C.). For the same compound, the Odor result in series [2] (after 2 weeks) and in series [2] (after 4 weeks) was “∘ (Total score of 10 panelists is 25 or more)” in each case. The figures for the Coloration result in series [3] (after 2 weeks) and in series [3] (after 4 weeks) were “∘ (Total score of 10 panelists is 25 or more)” and “Δ (Total score of 10 panelists is 16-24)”, respectively.
Turning to `O=C1OC(C(O)CO)C2=C1OCCCCO2` (stereo not shown) [Synthesis Example 3, 2,3-O-(1,4-butanediyl) ascorbic acid], the remaining at 336 h is at least 80% in series [1] (pH 3, 50° C.); at least 80% in series [1] (pH 5, 50° C.); at least 80% in series [1] (pH 7, 50° C.); at least 80% in series [1] (pH 8, 50° C.); 50 to 80% in series [1] (pH 9, 50° C.). Also, the remaining at 672 h is at least 80% in series [1] (pH 3, 50° C.); at least 80% in series [1] (pH 5, 50° C.); at least 80% in series [1] (pH 7, 50° C.); 50 to 80% in series [1] (pH 8, 50° C.); 30 to 50% in series [1] (pH 9, 50° C.). The Odor entry in series [2] (after 2 weeks) and in series [2] (after 4 weeks) was “∘ (Total score of 10 panelists is 25 or more)” throughout. Further, the Coloration entry in series [3] (after 2 weeks) and in series [3] (after 4 weeks) was “∘ (Total score of 10 panelists is 25 or more)” each time.
For the compound `CCCC(=O)OCC(O)C1OC(=O)C2=C1OCCCO2` (stereo not shown) [Synthesis Example 20, 6-O-butanoyl-2,3-O-(1,3-propanediyl) ascorbic acid], the Coloration result in series [4] (after 2 weeks) and in series [4] (after 4 weeks) was “◯ (Total score of 10 panelists is 25 or more)” each time. Moreover, the “Hyaluronic acid production-promoting effect” value in series [5] is “++ (120%<)”. Further, the Odor result in series [6] (after 2 weeks) is reported as “◯ (Total score of 10 panelists is 25 or more)”; in series [6] (after 4 weeks) it was “Δ (Total score of 10 panelists is 16-24)”. Moreover, the “Residual Rate” value in series [7] (setting [8]), in series [7] (setting [9]), in series [7] (setting [10]) and in series [7] (setting [11]) was “⊚ (95% or more)” in each case.
As for `CCCCCCCC(=O)OCC(O)C1OC(=O)C2=C1OCCCO2` (stereo not shown) [Synthesis Example 22, 6-O-octanoyl-2,3-O-(1,3-propanediyl) ascorbic acid], the Coloration result in series [4] (after 2 weeks) and in series [4] (after 4 weeks) was “◯ (Total score of 10 panelists is 25 or more)” in each case. Besides, the “Hyaluronic acid production-promoting effect” value in series [5] is listed as “++ (120%<)”. The figures for the Odor result in series [6] (after 2 weeks) and in series [6] (after 4 weeks) were “◯ (Total score of 10 panelists is 25 or more)” and “Δ (Total score of 10 panelists is 16-24)”, respectively. The “Residual Rate” value in series [7] (setting [8]), in series [7] (setting [9]), in series [7] (setting [10]) and in series [7] (setting [11]) was “⊚ (95% or more)” in each case.
Take `CCCCCCCCCCCC(=O)OCC(O)C1OC(=O)C2=C1OCCCO2` (stereo not shown) [Synthesis Example 24, 6-O-lauroyl-2,3-O-(1,3-propanediyl) ascorbic acid]: the Coloration result in series [4] (after 2 weeks) and in series [4] (after 4 weeks) was “◯ (Total score of 10 panelists is 25 or more)” each time. In series [5], the “Hyaluronic acid production-promoting effect” value is reported as “++ (120%<)”. Further, the Odor entry was “◯ (Total score of 10 panelists is 25 or more)” in series [6] (after 2 weeks) and “Δ (Total score of 10 panelists is 16-24)” in series [6] (after 4 weeks). Moreover, the “Residual Rate” value in series [7] (setting [8]), in series [7] (setting [9]), in series [7] (setting [10]) and in series [7] (setting [11]) was “⊚ (95% or more)” throughout.
For the compound `CCCCCCCCCCCC(=O)OCC(OC(=O)CCCCCCCCCCC)C1OC(=O)C2=C1OCCCO2` (stereo not shown) [Synthesis Example 25, 5,6-O-dilauroyl-2,3-O-(1,3-propanediyl) ascorbic acid], the Coloration entry is on record as “◯ (Total score of 10 panelists is 25 or more)” in series [4] (after 2 weeks) and “Δ (Total score of 10 panelists is 16-24)” in series [4] (after 4 weeks). The “Hyaluronic acid production-promoting effect” value in series [5] is on record as “++ (120%<)”. Besides, the Odor result in series [6] (after 2 weeks) was “◯ (Total score of 10 panelists is 25 or more)”; in series [6] (after 4 weeks) it was “Δ (Total score of 10 panelists is 16-24)”. In addition, the “Residual Rate” value in series [7] (setting [8]), in series [7] (setting [9]), in series [7] (setting [10]) and in series [7] (setting [11]) was “⊚ (95% or more)” in each case.
`CCCCCCCCCCCCCCCC(=O)OCC(O)C1OC(=O)C2=C1OCCCO2` (stereo not shown) [Synthesis Example 26, 6-O-palmitoyl-2,3-O-(1,3-propanediyl) ascorbic acid]: the values for the Coloration result in series [4] (after 2 weeks) and in series [4] (after 4 weeks) were “◯ (Total score of 10 panelists is 25 or more)” and “Δ (Total score of 10 panelists is 16-24)”, respectively. The “Hyaluronic acid production-promoting effect” value in series [5] is “++ (120%<)”. The figures for the Odor result in series [6] (after 2 weeks) and in series [6] (after 4 weeks) were “◯ (Total score of 10 panelists is 25 or more)” and “Δ (Total score of 10 panelists is 16-24)”, respectively. In addition, the “Residual Rate” value in series [7] (setting [8]) is “⊚ (95% or more)”; in series [7] (setting [9]), “⊚ (95% or more)”; in series [7] (setting [10]) it was “⊚ (95% or more)”; in series [7] (setting [11]), “◯ (85% or more, less than 95%)”.
With `CC(C)CCCCCCCCCCCCCCC(=O)OCC(O)C1OC(=O)C2=C1OCCCO2` (stereo not shown) [Synthesis Example 28, 6-O-isostearoyl-2,3-O-(1,3-propanediyl) ascorbic acid], the Coloration entry in series [4] (after 2 weeks) and in series [4] (after 4 weeks) was “◯ (Total score of 10 panelists is 25 or more)” each time. In addition, the “Hyaluronic acid production-promoting effect” value in series [5] is on record as “++ (120%<)”. Also, the Odor result in series [6] (after 2 weeks) was “◯ (Total score of 10 panelists is 25 or more)”; in series [6] (after 4 weeks), “Δ (Total score of 10 panelists is 16-24)”. Besides, the “Residual Rate” value in series [7] (setting [8]), in series [7] (setting [9]), in series [7] (setting [10]) and in series [7] (setting [11]) was “⊚ (95% or more)” throughout.
As to `CC(C)CCCCCCCCCCCCCCC(=O)OCC(O)C1OC(=O)C2=C1OCCO2` (stereo not shown) [Synthesis Example 31, 6-O-isostearoyl-2,3-O-(1,2-ethanediyl) ascorbic acid], the Coloration result in series [4] (after 2 weeks) and in series [4] (after 4 weeks) was “◯ (Total score of 10 panelists is 25 or more)” each time. Moreover, in series [5], the “Hyaluronic acid production-promoting effect” value is reported as “++ (120%<)”. Also, the results for the Odor result in series [6] (after 2 weeks) and in series [6] (after 4 weeks) were “◯ (Total score of 10 panelists is 25 or more)” and “Δ (Total score of 10 panelists is 16-24)”, respectively. Moreover, the “Residual Rate” value in series [7] (setting [8]), in series [7] (setting [9]), in series [7] (setting [10]) and in series [7] (setting [11]) was “⊚ (95% or more)” each time.
